For 20 molecules, TGI and GI50 results are on record in PubChem BioAssay (NCI).

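Step 1: Grow cells in 96-well plates. Step 2: Expose to compound for 48 hours at 5 concentrations. Step 3: Interpolate endpoints linearly; if unreached, use highest concentration. The concentration for 50% growth inhibition is given as GI50. TGI marks complete inhibition of growth.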 Some results are limits rather than exact numbers.

Test systems include HOP-18 NSCLC; KM20L2 colon; DMS 273 small cell lung; SNB-78 CNS; M19-MEL melanoma; LXFL 529 NSCLC; XF 498 CNS; MDA-N.
What all share (assay): NCI anticancer screen, dose series, 48 h

With `C=CCCc1cc(OC)ccc1CN(C)C(C)(C)CO`, the TGI in the assay with HOP-18 NSCLC, in the assay on KM20L2 colon, in the assay with DMS 273 small cell lung, in the assay with SNB-78 CNS and in the assay on M19-MEL melanoma was more than 100 µM in each case.

With `COCCNC(=O)C1C(=O)N(CCOC)C(=O)/C1=N/N` (configuration not stated), the TGI in the assay with LXFL 529 NSCLC, in the assay with XF 498 CNS, in the assay with KM20L2 colon, with DMS 273 small cell lung, with SNB-78 CNS and in the assay on M19-MEL melanoma was more than 100 µM each time.

As for `COC1OC(OC)C2C(c3c(C)cc(C)cc3C)=NOC12` (configuration not stated), the TGI with LXFL 529 NSCLC, in the assay on XF 498 CNS, in the assay with HOP-18 NSCLC, in the assay with KM20L2 colon, with DMS 273 small cell lung and in the assay on SNB-78 CNS was more than 100 µM in each case. Also, the TGI in the assay on M19-MEL melanoma was more than 100 µM.

As to `COc1ccc(C(=O)O/N=C2\CCCC\C2=C/c2ccccc2)cc1`, the TGI in the assay with LXFL 529 NSCLC was more than 100 µM; in the assay with XF 498 CNS, 89.2 µM; in the assay on HOP-18 NSCLC, more than 100 µM; with KM20L2 colon, more than 100 µM; with DMS 273 small cell lung it was more than 100 µM; in the assay with SNB-78 CNS, more than 100 µM. This molecule had a TGI in the assay with M19-MEL melanoma of more than 100 µM.

Regarding `CCCCN(CCCC)C(=Nc1ccccc1)N(CCCC)CCCC`, the TGI in the assay with LXFL 529 NSCLC is 18.5 µM; in the assay with XF 498 CNS it was 5.95 µM; in the assay with HOP-18 NSCLC, 6.39 µM; in the assay with KM20L2 colon, 12.5 µM; in the assay with DMS 273 small cell lung it was 17.1 µM; with SNB-78 CNS, 41 µM. In the assay with M19-MEL melanoma, this molecule gave a TGI of 22.4 µM.

As for `N#Cc1c([N+](=O)[O-])cc(C(F)(F)F)cc1[N+](=O)[O-]`, the TGI in the assay on LXFL 529 NSCLC was determined as 4.42 µM; with XF 498 CNS, 3.54 µM; in the assay with HOP-18 NSCLC, 23.9 µM; in the assay with KM20L2 colon it was 44.2 µM; in the assay on DMS 273 small cell lung it was 16.8 µM; in the assay with SNB-78 CNS, 4.15 µM. This molecule showed a TGI in the assay with M19-MEL melanoma of 5.27 µM.

With `CC(=O)OCC1OC(n2cc(F)c(=O)[nH]c2=O)C(OC(C)=O)C1OC(C)=O` (configuration not stated), the TGI in the assay on LXFL 529 NSCLC is more than 100 µM; with XF 498 CNS it was more than 100 µM; in the assay with HOP-18 NSCLC it was more than 100 µM; in the assay on MDA-N, more than 56.2 µM; in the assay on KM20L2 colon, more than 100 µM; with SNB-78 CNS, more than 100 µM. Moreover, in the assay on M19-MEL melanoma, the TGI was more than 100 µM.

Take `Cc1c2c(n3c(nc4ccccc43)c1C#N)SCC2`: in the assay with MDA-N, the TGI was more than 10 µM.

For `Nc1nc2nc3c(nc2c(=O)[nH]1)CN(c1ccc(C(=O)O)cc1)C3=O`, in the assay with MDA-N, the TGI is more than 100 µM.

Turning to `c1ccc([CH2][Sn]([CH2]c2ccccc2)([S]c2cccc3cccnc23)[S]c2cccc3cccnc23)cc1`, the GI50 in the assay with LXFL 529 NSCLC was 101 nM; in the assay on XF 498 CNS, 109 nM; with HOP-18 NSCLC, 246 nM; in the assay with KM20L2 colon, 365 nM; in the assay with SNB-78 CNS it was 382 nM; with M19-MEL melanoma, 276 nM. Moreover, the TGI came out at 0.244 µM in the assay with LXFL 529 NSCLC; 0.367 µM in the assay with XF 498 CNS; 0.84 µM in the assay on HOP-18 NSCLC; 1.14 µM in the assay on KM20L2 colon; 1.5 µM in the assay on SNB-78 CNS; 0.739 µM in the assay on M19-MEL melanoma.

As for `C=C1C(=O)OC2C1C(OC(=O)/C(=C/C)COC(C)=O)CC1(CO1)C1C(OC(=O)/C(=C/C)CO)C=C(C)C21` (configuration not stated), the TGI came out at 1.66 µM with LXFL 529 NSCLC; 3.78 µM in the assay on XF 498 CNS; 2.74 µM in the assay with HOP-18 NSCLC; 11.2 µM in the assay on KM20L2 colon; 3.68 µM with DMS 273 small cell lung; 6.41 µM in the assay with SNB-78 CNS. In the assay on M19-MEL melanoma, this molecule came in with a TGI of 4.3 µM.

In the case of `CN(C)CCCn1cnc2ncccc2c1=O`, the TGI in the assay on LXFL 529 NSCLC, in the assay with XF 498 CNS, in the assay with DMS 273 small cell lung, in the assay with SNB-78 CNS and with M19-MEL melanoma was more than 100 µM each time.

With `Cc1c(C(=O)/C=C/c2ccco2)[n+](=O)c2ccccc2n1[O-]`, the TGI with LXFL 529 NSCLC, in the assay with XF 498 CNS, in the assay with HOP-18 NSCLC, with KM20L2 colon, in the assay with DMS 273 small cell lung and in the assay with SNB-78 CNS was more than 100 µM each time. This molecule also showed a TGI with M19-MEL melanoma of more than 100 µM.

`[O-][n+]1onc2c3nn(-c4ccccc4)nc3ccc21` had a TGI in the assay on MDA-N of more than 100 µM.

For `C1=C[C@@H]2c3ccc4cnccc4c3NC[C@@H]2C1`, the TGI in the assay with MDA-N was more than 100 µM.

As to `CN1CCC(O)C(CNC23CC4CC(CC(C4)C2)C3)C1` (configuration not stated), the TGI in the assay with LXFL 529 NSCLC, with XF 498 CNS, in the assay with KM20L2 colon, in the assay with DMS 273 small cell lung, in the assay with SNB-78 CNS and in the assay with M19-MEL melanoma was more than 100 µM throughout.

As for `O=c1c(Cl)nsnc1Cl`, in the assay with MDA-N, the TGI was 36.9 µM.

Regarding `CCCOC(=O)C1CCC(=O)N1C(=O)C(Cl)Cl` (configuration not stated), the TGI in the assay on LXFL 529 NSCLC, in the assay on XF 498 CNS, in the assay on HOP-18 NSCLC, with KM20L2 colon, with DMS 273 small cell lung and in the assay with SNB-78 CNS was more than 100 µM throughout. Also, the TGI in the assay on M19-MEL melanoma was more than 100 µM.

In the assay on MDA-N, `CCCCC1(N=[N+]=[N-])C(=O)c2cccc3c2N(CCC3)C1=O` (configuration not stated) registered a TGI of more than 100 µM.

Regarding `CCS[C@H]1NC(=O)C1[C@H](C)O[Si](C)(C)C(C)(C)C` (some centres not stated), the TGI in the assay on XF 498 CNS, with HOP-18 NSCLC, in the assay with KM20L2 colon, in the assay on DMS 273 small cell lung, with SNB-78 CNS and with M19-MEL melanoma was more than 100 µM each time.
